Drawing on patent US9340590B2 (priority 2011, dated 2016), this text covers IC50 for 8 compounds.

Broadly, the IC50 is the concentration that gives 50% inhibition.

The target of one test is hNav1.5 (Homo sapiens, UniProt Q14524). Briefly: cell-based.
The target in the next test is hNav1.7 (Homo sapiens, UniProt Q15858). The experiment in a line: cell-based.

Each structure is given as a SMILES string. Read-outs that look alike come from different tables or passages of the source. Positions of bridges follow the written chain, without caps; N, C: chain ends. Non-standard residues stand in square brackets, D forms with d. Residues, ends and D or L forms follow the SMILES beside them. Sar = CNCC(=O)O

hNav1.5, sequence (Q14524 whole entry, looked up): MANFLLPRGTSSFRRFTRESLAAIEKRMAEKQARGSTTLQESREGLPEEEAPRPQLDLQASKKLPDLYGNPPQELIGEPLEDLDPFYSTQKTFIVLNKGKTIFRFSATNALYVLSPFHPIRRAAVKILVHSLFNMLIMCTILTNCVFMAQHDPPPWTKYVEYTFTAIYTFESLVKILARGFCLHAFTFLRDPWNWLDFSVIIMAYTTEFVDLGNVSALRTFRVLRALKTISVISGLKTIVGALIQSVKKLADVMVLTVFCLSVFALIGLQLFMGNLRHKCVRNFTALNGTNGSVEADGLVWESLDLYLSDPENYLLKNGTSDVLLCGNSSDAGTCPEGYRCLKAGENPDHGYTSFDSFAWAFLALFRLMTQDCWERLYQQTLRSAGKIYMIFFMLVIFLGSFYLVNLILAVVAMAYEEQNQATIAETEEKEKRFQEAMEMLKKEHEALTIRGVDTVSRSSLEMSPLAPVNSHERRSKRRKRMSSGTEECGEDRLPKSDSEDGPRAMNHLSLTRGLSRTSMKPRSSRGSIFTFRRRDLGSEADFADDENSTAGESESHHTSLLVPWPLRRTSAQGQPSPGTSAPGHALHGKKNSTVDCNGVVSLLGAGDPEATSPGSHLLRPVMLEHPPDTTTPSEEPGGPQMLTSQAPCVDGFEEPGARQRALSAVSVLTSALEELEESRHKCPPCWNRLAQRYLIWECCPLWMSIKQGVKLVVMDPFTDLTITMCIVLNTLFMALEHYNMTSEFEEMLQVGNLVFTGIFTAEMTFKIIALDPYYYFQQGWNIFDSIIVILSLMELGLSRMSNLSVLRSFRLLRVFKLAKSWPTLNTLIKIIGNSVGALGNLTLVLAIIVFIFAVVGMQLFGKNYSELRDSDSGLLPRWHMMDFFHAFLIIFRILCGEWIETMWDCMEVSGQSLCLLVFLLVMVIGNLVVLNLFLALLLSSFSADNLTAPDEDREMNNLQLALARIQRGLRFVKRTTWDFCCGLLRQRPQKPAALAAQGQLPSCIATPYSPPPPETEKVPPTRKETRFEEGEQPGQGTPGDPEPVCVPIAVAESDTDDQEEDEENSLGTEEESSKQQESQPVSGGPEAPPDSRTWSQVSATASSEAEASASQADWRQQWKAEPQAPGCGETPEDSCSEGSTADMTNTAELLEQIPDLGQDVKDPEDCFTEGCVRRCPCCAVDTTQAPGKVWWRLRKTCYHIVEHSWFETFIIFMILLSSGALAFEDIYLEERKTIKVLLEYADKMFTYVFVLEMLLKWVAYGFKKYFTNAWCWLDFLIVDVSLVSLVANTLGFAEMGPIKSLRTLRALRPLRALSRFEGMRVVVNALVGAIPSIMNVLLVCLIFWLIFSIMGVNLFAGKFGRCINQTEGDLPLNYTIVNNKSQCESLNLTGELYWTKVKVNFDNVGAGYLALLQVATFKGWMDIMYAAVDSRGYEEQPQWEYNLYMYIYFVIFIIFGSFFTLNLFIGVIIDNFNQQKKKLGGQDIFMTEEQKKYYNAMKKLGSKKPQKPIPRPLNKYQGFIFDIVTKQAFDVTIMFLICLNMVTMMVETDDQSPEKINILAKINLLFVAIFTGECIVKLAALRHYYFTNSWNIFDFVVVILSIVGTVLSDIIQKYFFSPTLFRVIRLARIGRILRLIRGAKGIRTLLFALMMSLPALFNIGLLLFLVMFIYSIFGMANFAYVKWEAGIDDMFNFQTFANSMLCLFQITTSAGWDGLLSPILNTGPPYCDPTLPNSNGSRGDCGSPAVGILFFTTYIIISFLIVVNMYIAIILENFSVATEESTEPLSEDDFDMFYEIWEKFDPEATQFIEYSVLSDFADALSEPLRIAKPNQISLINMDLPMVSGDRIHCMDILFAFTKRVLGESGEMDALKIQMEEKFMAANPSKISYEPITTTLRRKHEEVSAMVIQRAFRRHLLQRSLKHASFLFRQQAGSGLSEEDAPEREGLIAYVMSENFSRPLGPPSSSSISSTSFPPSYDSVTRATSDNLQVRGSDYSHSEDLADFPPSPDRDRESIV
hNav1.7, sequence (Q15858 whole entry, looked up): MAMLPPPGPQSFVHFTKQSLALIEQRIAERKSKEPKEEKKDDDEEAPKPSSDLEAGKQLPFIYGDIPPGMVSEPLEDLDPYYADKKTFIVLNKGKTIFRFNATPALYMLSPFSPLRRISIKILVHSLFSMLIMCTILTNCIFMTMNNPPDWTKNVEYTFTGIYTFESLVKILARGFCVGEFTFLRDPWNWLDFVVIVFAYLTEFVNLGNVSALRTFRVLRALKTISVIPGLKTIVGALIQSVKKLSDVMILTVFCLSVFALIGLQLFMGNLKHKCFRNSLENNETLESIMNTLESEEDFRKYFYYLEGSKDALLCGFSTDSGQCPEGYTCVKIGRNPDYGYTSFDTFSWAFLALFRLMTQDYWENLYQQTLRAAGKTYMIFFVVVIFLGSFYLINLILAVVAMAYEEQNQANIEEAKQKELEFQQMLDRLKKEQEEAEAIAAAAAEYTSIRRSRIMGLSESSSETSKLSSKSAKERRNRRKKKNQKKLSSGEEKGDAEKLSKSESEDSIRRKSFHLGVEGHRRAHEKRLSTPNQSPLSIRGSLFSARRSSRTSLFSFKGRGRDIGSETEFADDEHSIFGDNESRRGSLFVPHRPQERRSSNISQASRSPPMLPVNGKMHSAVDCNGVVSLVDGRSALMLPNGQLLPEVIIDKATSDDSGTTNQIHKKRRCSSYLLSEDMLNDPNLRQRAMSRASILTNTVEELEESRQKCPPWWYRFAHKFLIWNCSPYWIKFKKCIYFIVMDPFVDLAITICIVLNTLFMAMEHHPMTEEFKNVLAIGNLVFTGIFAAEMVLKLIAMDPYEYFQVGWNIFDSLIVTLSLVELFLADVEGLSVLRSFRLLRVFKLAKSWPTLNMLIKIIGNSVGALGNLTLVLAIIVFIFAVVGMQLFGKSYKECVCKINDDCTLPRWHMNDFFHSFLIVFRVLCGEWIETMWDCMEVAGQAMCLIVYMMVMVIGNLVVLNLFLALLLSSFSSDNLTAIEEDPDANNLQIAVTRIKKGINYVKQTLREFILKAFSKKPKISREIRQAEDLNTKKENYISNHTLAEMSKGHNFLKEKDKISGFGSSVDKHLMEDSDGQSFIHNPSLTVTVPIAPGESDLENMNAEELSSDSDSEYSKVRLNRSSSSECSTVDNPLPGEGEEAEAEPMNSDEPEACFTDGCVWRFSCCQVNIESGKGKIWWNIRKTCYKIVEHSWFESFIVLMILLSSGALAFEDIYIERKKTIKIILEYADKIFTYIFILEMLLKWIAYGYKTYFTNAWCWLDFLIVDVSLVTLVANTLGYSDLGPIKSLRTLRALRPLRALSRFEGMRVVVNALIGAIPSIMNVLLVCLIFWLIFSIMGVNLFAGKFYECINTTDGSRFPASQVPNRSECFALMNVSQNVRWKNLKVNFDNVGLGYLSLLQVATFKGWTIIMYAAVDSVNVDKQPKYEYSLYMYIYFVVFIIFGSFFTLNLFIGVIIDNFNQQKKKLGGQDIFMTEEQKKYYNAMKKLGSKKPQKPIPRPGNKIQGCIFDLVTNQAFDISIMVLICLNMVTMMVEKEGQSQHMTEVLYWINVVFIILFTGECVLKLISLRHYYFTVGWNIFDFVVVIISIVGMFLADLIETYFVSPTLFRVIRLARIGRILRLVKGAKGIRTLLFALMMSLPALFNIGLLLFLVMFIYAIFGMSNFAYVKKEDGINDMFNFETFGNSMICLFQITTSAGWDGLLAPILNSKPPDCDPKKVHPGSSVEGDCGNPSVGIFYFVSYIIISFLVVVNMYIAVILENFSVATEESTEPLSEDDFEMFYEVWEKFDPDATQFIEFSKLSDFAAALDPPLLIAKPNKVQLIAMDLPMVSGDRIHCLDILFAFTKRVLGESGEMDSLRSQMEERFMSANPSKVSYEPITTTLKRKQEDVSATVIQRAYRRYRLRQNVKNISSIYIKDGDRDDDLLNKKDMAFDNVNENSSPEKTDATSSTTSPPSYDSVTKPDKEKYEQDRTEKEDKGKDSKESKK

For `CC[C@H](C)[C@@H]1NC(=O)[C@@H]2CSSC[C@@H]3NC(=O)[C@H](C(C)C)NC(=O)[C@H](CC(C)C)NC(=O)[C@H](CC(N)=O)NC(=O)[C@@H]4CCCN4C(=O)[C@H](CCCNC(=NC)NC)NC(=O)[C@H](CSSC[C@H](NC(=O)[C@@H](N)CC(=O)O)C(=O)N[C@@H](CC(C)C)C(=O)NCC(=O)N[C@@H](Cc4ccccc4)C(=O)N[C@@H](CCSC)C(=O)N[C@@H](CCCNC(=N)N)C(=O)N[C@@H](CCCCN)C(=O)N2)NC(=O)[C@H](CSSC[C@@H](C(=O)N[C@@H](CCCCN)C(=O)N[C@@H](Cc2ccc(O)cc2)C(=O)N[C@H](C(=O)N[C@@H](Cc2ccccc2)C(N)=O)C(C)C)NC(=O)[C@H](Cc2c[nH]c4ccccc24)NC(=O)[C@H](CCCCN)NC(=O)[C@H](Cc2c[nH]cn2)NC(=O)[C@H]([C@@H](C)O)NC(=O)[C@H](CCCNC(=N)N)NC(=O)[C@H](CO)NC3=O)NC(=O)[C@H](CCCCN)NC(=O)[C@H](CC(=O)O)NC(=O)[C@H](CC(N)=O)NC(=O)[C@H](CC(=O)O)NC(=O)[C@@H]2CCCN2C1=O` [[SDMA18]GpTx-1(1-34)], the IC50 is 10000 nM against hNav1.5 and 6 nM at hNav1.7 (read-out: Nav1.7 Use IC50).

For `CC[C@H](C)[C@@H]1NC(=O)[C@@H]2CSSC[C@@H]3NC(=O)[C@H](C(C)C)NC(=O)[C@H](CC(C)C)NC(=O)[C@H](CC(N)=O)NC(=O)[C@@H]4CCCN4C(=O)[C@H](CCCNC(=N)N)NC(=O)[C@H](CSSC[C@H](NC(=O)[C@@H](N)CC(=O)O)C(=O)N[C@@H](CC(C)C)C(=O)NCC(=O)N(C)CC(=O)N[C@@H](Cc4ccccc4)C(=O)N[C@@H](CCCNC(=N)N)C(=O)N[C@@H](CCCCN)C(=O)N2)NC(=O)[C@H](CSSC[C@@H](C(=O)N[C@@H](CCCCN)C(=O)N[C@@H](Cc2ccc(O)cc2)C(=O)N[C@H](C(=O)N[C@@H](Cc2ccccc2)C(N)=O)C(C)C)NC(=O)[C@H](Cc2c[nH]c4ccccc24)NC(=O)[C@H](CCCCN)NC(=O)[C@H](Cc2c[nH]cn2)NC(=O)[C@H]([C@@H](C)O)NC(=O)[C@H](CCCNC(=N)N)NC(=O)[C@H](CO)NC3=O)NC(=O)[C@H](CCCCN)NC(=O)[C@H](CC(=O)O)NC(=O)[C@H](CC(N)=O)NC(=O)[C@H](CC(=O)O)NC(=O)[C@@H]2CCCN2C1=O` [[Sar5;Phe6]GpTx-1(1-34)] (H-DCLG[Sar]FRKCIPDNDKCCRPNLVCSRTHKWCKYVF-NH2; disulfide 2-17, 9-23, 16-30), the IC50 against hNav1.5 was more than 10000 nM; at hNav1.7 (Nav1.7 Use IC50), 25 nM.

In the case of `CC[C@H](C)[C@@H]1NC(=O)[C@@H]2CSSC[C@@H]3NC(=O)[C@H](C(C)C)NC(=O)[C@H](CC(C)C)NC(=O)[C@H](CC(N)=O)NC(=O)[C@@H]4CCCN4C(=O)[C@H](CCCNC(=N)N)NC(=O)[C@H](CSSC[C@H](NC(=O)[C@@H](N)CC(=O)O)C(=O)N[C@@H](CC(C)C)C(=O)NCC(=O)N[C@@H](CO)C(=O)N[C@@H](Cc4ccccc4)C(=O)N[C@@H](CCCNC(=N)N)C(=O)N[C@@H](CCCCN)C(=O)N2)NC(=O)[C@H](CSSC[C@@H](C(=O)N[C@@H](CCCCN)C(=O)N[C@@H](Cc2ccc(O)cc2)C(=O)N[C@H](C(=O)N[C@@H](Cc2ccccc2)C(N)=O)C(C)C)NC(=O)[C@H](Cc2c[nH]c4ccccc24)NC(=O)[C@H](CCCCN)NC(=O)[C@H](Cc2c[nH]cn2)NC(=O)[C@H]([C@@H](C)O)NC(=O)[C@H](CCCNC(=N)N)NC(=O)[C@H](CO)NC3=O)NC(=O)[C@H](CCCCN)NC(=O)[C@H](CC(=O)O)NC(=O)[C@H](CC(N)=O)NC(=O)[C@H](CC(=O)O)NC(=O)[C@@H]2CCCN2C1=O` [[Ser5;Phe6]GpTx-1(1-34)] (H-DCLGSFRKCIPDNDKCCRPNLVCSRTHKWCKYVF-NH2; disulfide 2-17, 9-23, 16-30), the 50% inhibitory concentration (IC50) was more than 10000 nM against hNav1.5 and 24 nM against hNav1.7 (Nav1.7 Use IC50).

`CC[C@H](C)[C@@H]1NC(=O)[C@@H]2CSSC[C@@H]3NC(=O)[C@H](C(C)C)NC(=O)[C@H](CC(C)C)NC(=O)[C@H](CC(N)=O)NC(=O)[C@@H]4CCCN4C(=O)[C@H](CCCNC(=N)N)NC(=O)[C@H](CSSC[C@H](NC(=O)[C@@H](N)CC(=O)O)C(=O)N[C@@H](CC(C)C)C(=O)NCC(=O)N[C@@H](C(C)(C)C)C(=O)N[C@@H](CC(C)C)C(=O)N[C@@H](CCCNC(=N)N)C(=O)N[C@@H](CCCCN)C(=O)N2)NC(=O)[C@H](CSSC[C@@H](C(=O)N[C@@H](CCCCN)C(=O)N[C@@H](Cc2ccc(O)cc2)C(=O)N[C@H](C(=O)N[C@@H](Cc2ccccc2)C(N)=O)C(C)C)NC(=O)[C@H](Cc2c[nH]c4ccccc24)NC(=O)[C@H](CCCCN)NC(=O)[C@H](Cc2c[nH]cn2)NC(=O)[C@H]([C@@H](C)O)NC(=O)[C@H](CCCNC(=N)N)NC(=O)[C@H](CO)NC3=O)NC(=O)[C@H](CCCCN)NC(=O)[C@H](CC(=O)O)NC(=O)[C@H](CC(N)=O)NC(=O)[C@H](CC(=O)O)NC(=O)[C@@H]2CCCN2C1=O` [[Tle5;Leu6]GpTx-1(1-34)]: the IC50 was more than 10000 nM at hNav1.5 and 17 nM against hNav1.7 (Nav1.7 Use IC50).

In the case of `CC[C@H](C)[C@@H]1NC(=O)[C@@H]2CSSC[C@@H]3NC(=O)[C@H](Cc4c[nH]c5ccccc45)NC(=O)[C@H](CC(C)C)NC(=O)[C@H](CC(N)=O)NC(=O)[C@@H]4CCCN4C(=O)[C@H](CCCNC(=N)N)NC(=O)[C@H](CSSC[C@H](NC(=O)[C@@H](N)CC(=O)O)C(=O)N[C@@H](CC(C)C)C(=O)NCC(=O)N[C@@H](Cc4ccccc4)C(=O)N[C@@H](CCSC)C(=O)N[C@@H](CCCNC(=N)N)C(=O)N[C@@H](CCCCN)C(=O)N2)NC(=O)[C@H](CSSC[C@@H](C(=O)N[C@@H](CCCCN)C(=O)N[C@@H](Cc2ccc(O)cc2)C(=O)N[C@H](C(=O)N[C@@H](Cc2ccccc2)C(N)=O)C(C)C)NC(=O)[C@H](Cc2c[nH]c4ccccc24)NC(=O)[C@H](CCCCN)NC(=O)[C@H](Cc2cnc[nH]2)NC(=O)[C@H]([C@@H](C)O)NC(=O)[C@H](CCCNC(=N)N)NC(=O)[C@H](CO)NC3=O)NC(=O)[C@H](CCCCN)NC(=O)[C@H](CC(=O)O)NC(=O)[C@H](CC(N)=O)NC(=O)[C@H](CC(=O)O)NC(=O)[C@@H]2CCCN2C1=O` [[Trp22]GpTx-1(1-34)] (H-DCLGFMRKCIPDNDKCCRPNLWCSRTHKWCKYVF-NH2; disulfide 2-17, 9-23, 16-30), the IC50 stood at 4780 nM against hNav1.5 and 39 nM against hNav1.7 (Nav1.7 Use IC50).

Take `CC[C@H](C)[C@@H]1NC(=O)[C@@H]2CSSC[C@@H]3NC(=O)[C@H](C(C)C)NC(=O)[C@H](CC(C)C)NC(=O)[C@H](CC(N)=O)NC(=O)[C@@H]4CCCN4C(=O)[C@H](CCCNC(=N)N)NC(=O)[C@H](CSSC[C@H](NC(=O)[C@@H](N)CC(=O)O)C(=O)N[C@@H](CC(C)C)C(=O)NCC(=O)N[C@@H](Cc4ccccc4)C(=O)N[C@@H](CCSC)C(=O)N[C@@H](CCCNC(=N)N)C(=O)N[C@@H](CCCCN)C(=O)N2)NC(=O)[C@H](CSSC[C@@H](C(=O)N[C@@H](CCCCN)C(=O)N[C@@H](Cc2ccc(O)cc2)C(=O)N[C@@H](Cc2c[nH]c4ccccc24)C(=O)N[C@@H](Cc2ccccc2)C(N)=O)NC(=O)[C@H](Cc2c[nH]c4ccccc24)NC(=O)[C@H](CCCCN)NC(=O)[C@H](Cc2c[nH]cn2)NC(=O)[C@H]([C@@H](C)O)NC(=O)[C@H](CCCNC(=N)N)NC(=O)[C@H](CO)NC3=O)NC(=O)[C@H](CCCCN)NC(=O)[C@H](CC(=O)O)NC(=O)[C@H](CC(N)=O)NC(=O)[C@H](CC(=O)O)NC(=O)[C@@H]2CCCN2C1=O` [[Trp33]GpTx-1(1-34)] (H-DCLGFMRKCIPDNDKCCRPNLVCSRTHKWCKYWF-NH2; disulfide 2-17, 9-23, 16-30): the IC50 turned out to be 2350 nM against hNav1.5 and 18 nM at hNav1.7 (Nav1.7 Use IC50).

`CC[C@H](C)[C@@H]1NC(=O)[C@@H]2CSSC[C@@H]3NC(=O)[C@H](Cc4ccc(O)cc4)NC(=O)[C@H](CC(C)C)NC(=O)[C@H](CC(N)=O)NC(=O)[C@@H]4CCCN4C(=O)[C@H](CCCNC(=N)N)NC(=O)[C@H](CSSC[C@H](NC(=O)[C@@H](N)CC(=O)O)C(=O)N[C@@H](CC(C)C)C(=O)NCC(=O)N[C@@H](Cc4ccccc4)C(=O)N[C@@H](CCSC)C(=O)N[C@@H](CCCNC(=N)N)C(=O)N[C@@H](CCCCN)C(=O)N2)NC(=O)[C@H](CSSC[C@@H](C(=O)N[C@@H](CCCCN)C(=O)N[C@@H](Cc2ccc(O)cc2)C(=O)N[C@H](C(=O)N[C@@H](Cc2ccccc2)C(N)=O)C(C)C)NC(=O)[C@H](Cc2c[nH]c4ccccc24)NC(=O)[C@H](CCCCN)NC(=O)[C@H](Cc2c[nH]cn2)NC(=O)[C@H]([C@@H](C)O)NC(=O)[C@H](CCCNC(=N)N)NC(=O)[C@H](CO)NC3=O)NC(=O)[C@H](CCCCN)NC(=O)[C@H](CC(=O)O)NC(=O)[C@H](CC(N)=O)NC(=O)[C@H](CC(=O)O)NC(=O)[C@@H]2CCCN2C1=O` [[Tyr22]GpTx-1(1-34)] (H-DCLGFMRKCIPDNDKCCRPNLYCSRTHKWCKYVF-NH2; disulfide 2-17, 9-23, 16-30): the IC50 on hNav1.5 was more than 10000 nM; against hNav1.7 (Nav1.7 Use IC50) it was 18 nM.

As to `CSCC[C@@H]1NC(=O)[C@H](C(C)C)NC(=O)CNC(=O)[C@H](CC(C)C)NC(=O)[C@@H](NC(=O)[C@@H](N)CC(=O)O)CSSC[C@@H]2NC(=O)[C@@H]3CSSC[C@@H](C(=O)N[C@@H](CCCCN)C(=O)N[C@@H](Cc4ccc(O)cc4)C(=O)N[C@H](C(=O)N[C@@H](Cc4ccccc4)C(N)=O)C(C)C)NC(=O)[C@H](Cc4c[nH]c5ccccc45)NC(=O)[C@H](CCCCN)NC(=O)[C@H](Cc4c[nH]cn4)NC(=O)[C@H]([C@@H](C)O)NC(=O)[C@H](CCCNC(=N)N)NC(=O)[C@H](CO)NC(=O)[C@H](CSSC[C@H](NC(=O)[C@H](CCCCN)NC(=O)[C@H](CCCNC(=N)N)NC1=O)C(=O)N[C@@H](CC(=O)O)C(=O)N1CCC[C@H]1C(=O)N[C@@H](CCC(=O)O)C(=O)N[C@@H](CC(N)=O)C(=O)N[C@@H](CC(=O)O)C(=O)N[C@@H](CCCCN)C(=O)N3)NC(=O)[C@H](C(C)C)NC(=O)[C@H](CC(C)C)NC(=O)[C@H](CC(N)=O)NC(=O)[C@@H]1CCCN1C(=O)[C@H](CCCNC(=N)N)NC2=O` [[Val5;Asp10;Glu12]GpTx-1(1-34)] (H-DCLGVMRKCDPENDKCCRPNLVCSRTHKWCKYVF-NH2; disulfide 2-17, 9-23, 16-30), the concentration for half-maximal inhibition (IC50) against hNav1.5 is more than 10000 nM; against hNav1.7 (Nav1.7 Use IC50), 116 nM.
